Reference: the supplement of paper PMC7394473

How the values were obtained:
Conditions in all cases: 72 h
U2OS [1] = test: fractional viability (live cells / total cells); higher = less cell death
Procedure: (§1)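 U2OS::Nuc-mKate2 cells seeded in 96-well plates and treated with eight- to ten-point half-log or log dilutions of drug in the presence of 50 nM SYTOX Green. Live (mKate2+) and dead (SYTOX+) cells were counted by IncuCyte STACK live-cell microscopy at 72 h; biological triplicates. GR is the normalised growth-rate inhibition value (Hafner 2016; 1 = untreated growth, <0 = population shrinking). FV is live/(live+dead) cells, not normalised.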

U2OS [2] = test: GRmin (fitted minimal GR value at highest effect) (GR value (dimensionless)); higher = less efficacious
Procedure: (§2)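 U2OS cells treated with full dose titrations of drug; live and dead cells counted by STACK microscopy (mKate2 nuclei, SYTOX Green) at 72 h, biological triplicates. GR and FV dose responses were fitted with 4-parameter logistic models (GR lower bound -1). GRADE (0-100) is the rescaled angle of a linear fit of FV versus GR at doses with GR >= 0, giving the percentage of the response due to cell death.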

U2OS [3] = test: normalized growth rate inhibition value (GR) relative to untreated cells (GR value (dimensionless, 1 = untreated growth)); higher = less growth inhibition
Procedure: as §1

U2OS [4] = test: GR50 (concentration giving GR = 0.5)
Procedure: as §2

U2OS [5] = test: drug GRADE (percent of response due to cell death) (% (0-100)); higher = more death-driven response
Procedure: as §2

Row | SMILES | fractional viability (U2OS [1]; 0.01 µM) | fractional viability (U2OS [1]; 0.0316 µM) | fractional viability (U2OS [1]; 0.1 µM) | fractional viability (U2OS [1]; 0.316 µM) | fractional viability (U2OS [1]; 1 µM) | fractional viability (U2OS [1]; 3.16 µM) | fractional viability (U2OS [1]; 10 µM) | fractional viability (U2OS [1]; 31.6 µM) | GRmin (U2OS [2]) | normalized growth rate inhibition value (U2OS [3]; 0.01 µM) | normalized growth rate inhibition value (U2OS [3]; 0.0316 µM) | normalized growth rate inhibition value (U2OS [3]; 0.1 µM) | normalized growth rate inhibition value (U2OS [3]; 0.316 µM) | normalized growth rate inhibition value (U2OS [3]; 1 µM) | normalized growth rate inhibition value (U2OS [3]; 3.16 µM) | normalized growth rate inhibition value (U2OS [3]; 10 µM) | normalized growth rate inhibition value (U2OS [3]; 31.6 µM) | GR50 (U2OS [4]) [µM] | fractional viability (U2OS [1]; 0.00100578 µM) | fractional viability (U2OS [1]; 0.00317827 µM) | fractional viability (U2OS [1]; 0.0100433 µM) | fractional viability (U2OS [1]; 0.0317369 µM) | fractional viability (U2OS [1]; 0.100289 µM) | fractional viability (U2OS [1]; 0.316912 µM) | fractional viability (U2OS [1]; 1.00144 µM) | fractional viability (U2OS [1]; 3.16456 µM) | drug GRADE (U2OS [5]) | normalized growth rate inhibition value (U2OS [3]; 0.00100578 µM) | normalized growth rate inhibition value (U2OS [3]; 0.00317827 µM) | normalized growth rate inhibition value (U2OS [3]; 0.0100433 µM) | normalized growth rate inhibition value (U2OS [3]; 0.0317369 µM) | normalized growth rate inhibition value (U2OS [3]; 0.100289 µM) | normalized growth rate inhibition value (U2OS [3]; 0.316912 µM) | normalized growth rate inhibition value (U2OS [3]; 1.00144 µM) | normalized growth rate inhibition value (U2OS [3]; 3.16456 µM)
1 | O=C(O)CCCc1ccc(N(CCCl)CCCl)cc1 [Chlorambucil] | 0.983 | 0.974 | 0.978 | 0.978 | 0.979 | 0.976 | 0.976 | 0.967 | 0.695 | 1.08 | 0.879 | 1.13 | 0.991 | 0.93 | 0.936 | 0.925 | 0.838 | – | – | – | – | – | – | – | – | – | – | – | – | – | – | – | – | – | –
2 | N.N.[Cl][Pt][Cl] [Cisplatin] | – | – | – | – | – | – | 0.884 | – | 0.0264 | – | – | – | – | – | – | 0.0495 | – | 1.8 | 0.99 | 0.989 | 0.988 | 0.99 | 0.988 | 0.986 | 0.984 | 0.957 | 11.1 | 0.959 | 0.955 | 1.02 | 0.95 | 0.901 | 0.972 | 0.755 | 0.248
3 | CN(C)/N=N/c1[nH]cnc1C(N)=O [Dacarbazine] | 0.975 | 0.984 | 0.974 | 0.978 | 0.975 | 0.964 | 0.942 | 0.926 | 0.749 | 1.08 | 1.01 | 0.899 | 0.939 | 0.934 | 0.821 | 0.837 | 0.769 | – | – | – | – | – | – | – | – | – | – | – | – | – | – | – | – | – | –
4 | Cc1nc(Nc2ncc(C(=O)Nc3c(C)cccc3Cl)s2)cc(N2CCN(CCO)CC2)n1 [Dasatinib] | – | – | – | – | – | – | 0.635 | – | – | – | – | – | – | – | – | -0.105 | – | 1.68 | 0.99 | 0.988 | 0.979 | 0.974 | 0.976 | 0.97 | 0.963 | 0.913 | 26.7 | 0.806 | 0.867 | 0.998 | 0.833 | 0.762 | 0.799 | 0.605 | 0.35
5 | CCOc1ccccc1-n1c(C(C)N2CCN(C(=O)COc3ccc(Cl)cc3)CC2)nc2ccccc2c1=O (stereo not drawn) [Erastin] | 0.977 | 0.982 | 0.983 | 0.976 | 0.961 | 0.945 | 0.647 | 0.531 | -0.351 | 0.987 | 1 | 0.973 | 0.878 | 0.826 | 0.586 | 0.22 | -0.0643 | 4.14 | – | – | – | – | – | – | – | – | 44.7 | – | – | – | – | – | – | – | –
6 | C#Cc1cccc(Nc2ncnc3cc(OCCOC)c(OCCOC)cc23)c1 [Erlotinib] | 0.973 | 0.976 | 0.977 | 0.967 | 0.96 | 0.96 | 0.913 | 0.697 | 0.542 | 0.935 | 0.993 | 1.03 | 0.986 | 1.06 | 0.928 | 0.636 | 0.545 | – | – | – | – | – | – | – | – | – | 62.1 | – | – | – | – | – | – | – | –
7 | COc1cc([C@@H]2c3cc4c(cc3[C@@H](O[C@@H]3O[C@@H]5CO[C@@H](C)O[C@H]5[C@H](O)[C@H]3O)[C@H]3COC(=O)[C@H]23)OCO4)cc(OC)c1O [Etoposide] | – | – | – | – | – | – | 0.628 | – | -0.106 | – | – | – | – | – | – | -0.155 | – | 0.0978 | 0.99 | 0.988 | 0.993 | 0.989 | 0.975 | 0.952 | 0.96 | 0.922 | 8.6 | 0.934 | 1.02 | 0.895 | 0.785 | 0.524 | 0.11 | -0.0401 | -0.0127
8 | CO[C@H]1C[C@@H]2CC[C@@H](C)[C@@](O)(O2)C(=O)C(=O)N2CCCC[C@H]2C(=O)O[C@H]([C@H](C)C[C@@H]2CC[C@@H](OCCO)[C@H](OC)C2)CC(=O)[C@H](C)/C=C(\C)[C@@H](O)[C@@H](OC)C(=O)[C@H](C)C[C@H](C)/C=C/C=C/C=C/1C [Everolimus] | – | – | – | – | – | – | 0.984 | – | -0.334 | – | – | – | – | – | – | 0.515 | – | – | 0.994 | 0.992 | 0.991 | 0.994 | 0.993 | 0.994 | 0.989 | 0.99 | 0.964 | 0.653 | 0.758 | 0.721 | 0.653 | 0.738 | 0.79 | 0.598 | 0.524
